Source: PubChem BioAssay AID179 (DTP/NCI, 2004)
Activity calls are given as the source filed them.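 The calls were made as follows: active = compounds giving half or more protection of infected cells from virus-caused growth loss, again on retest; inactive = the rest.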 Where a SMILES comes first, the peptide text is derived from it. [ ]: non-standard residue; d: D form. The star is where a group is joined. Tyr(3-Br) = N[C@@H](Cc1ccc(O)c(Br)c1)C(=O)O; Boc = CC(C)(C)OC(=O)*

Tested on: CEM cells HIV-1 protection, formazan growth assay
Test: NCI AIDS Antiviral Assay
Conditions: for IC50: measured here: growth of uninfected CEM cells
Procedure, shortened: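 Category rules: moderately active means at least 50% protection on retest, and confirmed active means 100% protection reproducibly. The underlying data came from a formazan growth assay in HIV-1-infected CEM cells.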

Row | Compound | EC50 | IC50 | outcome
1 | CC(C)Cc1nc(-c2cc3ccccc3[nH]2)c(CC(C)C)nc1-c1cc2ccccc2[nH]1 | > 4.68 µM | > 4.68 µM | –
2 | CN(C)CCN(C)C(=O)C1CCCN1C(=O)OCc1ccccc1 (configuration not stated) | > 759 µM | 46.8 µM | –
3 | O=c1[nH]c2nc3ccccc3c(=O)n2/c1=C/c1ccco1 | > 200 µM | > 200 µM | –
4 | CC(=O)N(CCN)CCN | – | – | inactive
5 | CCCC(=O)NC1CCc2cc(OC)c(OC)c(OC)c2-c2ccc(OC)c(=O)cc21 (configuration not stated) | > 2 µM | 0.0126 µM | –
6 | O=C(Nc1ccc(Cl)cc1Cl)c1c/c(=N\O)c2ccc(O)cc2o1 | – | – | inactive
7 | COc1ccc(N2C(=O)/C(=C\c3cc(OC)c(OC)c(OC)c3)S(=O)(=O)C2c2ccccc2)cc1 (configuration not stated) | > 200 µM | 41.7 µM | –
8 | COc1ccc2c(c1)c1c(n2CCN2CCOCC2)-c2ccccc2CC1 | – | – | inactive
9 | COC(=O)CC(=O)OC1C[C@@H]2CCC3C(C)(C)CCC[C@]3(C)C23CC[C@@]1(C)C3 (some centres not stated) | > 18.2 µM | > 18.2 µM | –
10 | Cc1nc(-c2cccnc2)sc1C(=O)CC(=O)C(=O)Nc1cccc(NC(=O)C(=O)CC(=O)c2sc(-c3cccnc3)nc2C)n1 | > 275 µM | 158 µM | –
11 | COC(=O)C(C)(C)[C@@H]1OC(=O)N(S(=O)(=O)c2c(C)cc(C)cc2C)[C@H]1C(C)C | > 200 µM | 50.1 µM | –
12 | COc1cccc(/C=C2\N=C(c3ccccc3)OC2=O)c1OC | > 200 µM | 91.2 µM | –
13 | c1cc(-c2cn3c(n2)SCC3)ccn1 | > 437 µM | 182 µM | –
14 | CCOC(=O)C(=CNC(=S)Nc1c(CC)cccc1C(C)(C)C)C(=O)OCC | > 200 µM | > 200 µM | –
15 | c1cncc(C2c3[nH]c4ccccc4c3CCN2CCN2CCCCC2)c1 (configuration not stated) | > 3.98 µM | > 3.98 µM | –
16 | CC(C)OP(=O)(CP(=O)(OC(C)C)OC(C)C)OC(C)C.[CH3][Sn]([Br])([Br])[Br] | > 347 µM | > 347 µM | –
17 | Cc1noc(NC(=O)Nc2ccccc2C(F)(F)F)c1C | > 200 µM | > 200 µM | –
18 | CN(C)CC/C(=N\Nc1ccc([N+](=O)[O-])cc1)c1ccccc1 | – | – | inactive
19 | O=C1c2ccccc2C(=O)N1[C@@H](Cc1ccccc1)C(=O)n1cccc1CO | > 200 µM | 174 µM | –
20 | CN(C)CCN1C(=O)c2ccccc2C1(O)c1ccc(Cl)cc1 (configuration not stated) | > 200 µM | 44.7 µM | –
21 | CCC1=C(C)/C(=C/c2[nH]c(C(Br)Br)c(CC)c2C)N=C1C(Br)Br | – | – | inactive
22 | CN1C(=S)N2CCCCCCCC2c2c1nc(CCl)[nH]c2=O (configuration not stated) | > 200 µM | 6.92 µM | –

Row | Compound | EC50 | IC50 | outcome
23 | COc1cc2c(c(OC)c1OC)-c1ccc(OC)c(=O)cc1[C@@H](NC(C)=O)CC2 | – | – | inactive
24 | O=C1CC(=O)NC(=NN2C(=O)CSC2c2ccc(Cl)c(Cl)c2)N1 (configuration not stated) | > 200 µM | 102 µM | –
25 | COC(=O)CN1Cc2cc(C)cc(c2O)CN(CC(=O)OC)Cc2cc(C)cc(c2O)CN(CC(=O)OC)Cc2cc(C)cc(c2O)C1 | > 200 µM | 19.5 µM | –
26 | COC1OC(Cn2cc([N+](=O)[O-])nc2C)C(O)C(O)C1O (configuration not stated) | > 200 µM | > 200 µM | –
27 | C/C(CN1C(=O)c2ccccc2C1=O)=N\NS(=O)(=O)c1ccc(Cl)cc1 | > 457 µM | > 457 µM | –
28 | OCc1cc[te]c1 | – | – | inactive
29 | Cc1c(C2(c3cc(C(C)C)c(O)c(Br)c3C)OS(=O)(=O)c3ccccc32)cc(C(C)C)c(O)c1Br | > 288 µM | 97.7 µM | –
30 | COC(=O)c1c2c(c(-c3ccccc3)c3c1-c1nc(Cl)ccc1CC3)CCc1ccc(Cl)nc1-2 | > 20.4 µM | > 20.4 µM | –
31 | Cc1nn(-c2ccccc2)c2[nH]c(=S)cnc12 | > 200 µM | 87.1 µM | –
32 | CCN1C(=O)c2ccccc2C1(O)c1ccc(Cl)cc1 (configuration not stated) | > 200 µM | 151 µM | –
33 | CN(CC#N)[C@H]1CCC[C@]1(O)/C=C/[Si](C)(C)C | > 28.8 µM | > 28.8 µM | –
34 | CC(=O)O[C@H]1CC[C@@]2(C)C(=C[C@H](c3ccc(O)cc3)[C@H]3[C@@H]4CC[C@H](OC(C)=O)[C@@]4(C)CC[C@@H]32)C1 | > 200 µM | 22.9 µM | –
35 | C=C1C2CCC3(C4C[C@H]5C6(CCC[C@@]5(C)[C@H]5OCCN5[C@H]6O4)[C@@H]3C2)C1OC(C)=O (some centres not stated) | > 12.9 µM | > 12.9 µM | –
36 | N#CCCN(CCC#N)c1ccc(/C=C2\SC(=S)NC2=O)cc1Br | > 200 µM | > 200 µM | –
37 | N#Cc1sc2nc3c(c(-c4ccccc4)c2c1N)CCCC3 | – | – | inactive
38 | COc1ccc(CCN(C)CCC[C@](C#N)(c2ccc(OC)c(OC)c2)C(C)C)cc1OC | > 200 µM | 38.9 µM | –
39 | O=C(OC12CC3CC(CC(C3)C1)C2)c1ccc(NCc2cc(O)ccc2O)cc1 | > 20 µM | 0.955 µM | –
40 | C=C(C[N+](C)(C)C)N/N=C/c1oc(-c2ccc(OC)c(OC)c2)c(-c2ccc(OC)c(OC)c2)c1[N+](=O)[O-] | > 12.9 µM | > 12.9 µM | –
41 | N#CC(C(=O)CCC(=O)Nc1ccc(Cl)cc1)c1ccc(Cl)cc1 (configuration not stated) | – | – | inactive
42 | O=C(Nc1ccccc1[N+](=O)[O-])C(=O)C(C(=O)c1ccccc1-c1ccccc1)C1OC(=O)c2ccccc21 (configuration not stated) | > 50.1 µM | 25.7 µM | –
43 | Cc1ccc2c(c1C)C(=O)/C(=C/c1cccc(C)c1C(=O)O)C2 | – | – | inactive
44 | CCCCC(=S)SSC(C)(C)C | > 200 µM | 55 µM | –

Row | Compound | EC50 | IC50 | outcome
45 | CC1NC(=O)c2c(-c3ccccc3)nn(-c3ccccc3)c2NC1=O (configuration not stated) | > 200 µM | > 200 µM | –
46 | CC#CC(O)(C(=O)OC1CCC2CCC1N2C)C1CCCC1 (configuration not stated) | > 200 µM | > 200 µM | –
47 | COC1(c2ccccc2)OC(=O)c2ccccc21 (configuration not stated) | > 200 µM | 83.2 µM | –
48 | CN(C)c1ccc(C2=NC(=S)NC(c3cc(Cl)ccc3O)C2)cc1 (configuration not stated) | > 200 µM | 30.2 µM | –
49 | CNC(=O)OCC1=CC(=O)C=C(OC)C1=O | > 550 µM | 11 µM | –
50 | COc1ccc2c(-c3ccc(O)cc3)c(Oc3ccc(Cl)cc3)c(=O)oc2c1 | > 200 µM | 19.1 µM | –
51 | Cc1ccc(C)c(N2C(=O)C(=O)C(c3nc4ccccc4s3)/C(=N/N)C2=O)c1 (configuration not stated) | > 50.1 µM | > 50.1 µM | –
52 | O=C1C(CN2CCCCC2)CCCC1CN1CCCCC1 (configuration not stated) | > 550 µM | 6.17 µM | inactive
53 | O=C(OCCN1CCOCC1)c1cc2ccccc2oc1=O | > 741 µM | > 741 µM | –
54 | O=C1OC2(c3ccc(O)cc3Oc3cc(O)ccc32)c2c1c(-c1ccccc1)c(-c1ccccc1)c(-c1ccccc1)c2-c1ccccc1 | 10 µM | 16.6 µM | –
55 | CCCCCCCCCCCCCCCC1=NCCN1C | > 45.7 µM | 35.5 µM | –
56 | Cc1c(C2(c3cc(C(C)C)c(O)c(CN(CC(=O)O)CC(=O)O)c3C)OS(=O)(=O)c3ccccc32)cc(C(C)C)c(O)c1CN(CC(=O)O)CC(=O)O | > 100 µM | > 100 µM | –
57 | COc1ccc2c(c1)OC[C@@H]1c3cc(NC(=O)c4ccccc4)c(OCc4ccccc4)cc3N(S(=O)(=O)c3ccccc3)[C@H]21 | > 200 µM | > 200 µM | –
58 | CCCC1(N)CC(OC)OC(C)C1O (configuration not stated) | > 200 µM | > 200 µM | –
59 | C/C(=N/NC(=S)N1CCCCC1)c1cccc(/C(C)=N\NC(=S)N2CCCCC2)n1 | > 200 µM | 13.2 µM | –
60 | O=C(N/N=C(/c1nc2ccc(Cl)cc2[nH]c1=O)C(O)c1ccc(Cl)cc1Cl)c1ccncc1 (configuration not stated) | > 501 µM | 162 µM | –
61 | O=S(=O)(O)c1cc(Cl)c(O)c2ncc(Cl)cc12 | > 200 µM | 42.7 µM | –
62 | OC1(c2ccccc2)CC2CCC(C1)N2CCc1ccccc1 (configuration not stated) | > 200 µM | 102 µM | –
63 | COc1cc(C(c2ccc(N(Cc3ccccc3)Cc3ccccc3)cc2NC(C)=O)c2ccc(N(Cc3ccccc3)Cc3ccccc3)cc2NC(C)=O)ccc1O | > 200 µM | > 200 µM | –
64 | [O-][n+]1c2ccccc2[n+]([O-])c2c3ccccc3[nH]c21 | > 20.9 µM | > 20.9 µM | –
65 | Cc1csc2nc(-c3ccccc3)cn12 | > 437 µM | 204 µM | –
66 | CC1COS(=O)(=O)CS(=O)(=O)O1 (configuration not stated) | > 1150 µM | > 1150 µM | –

Row | Compound | EC50 | IC50 | outcome
67 | Cn1c(=N)c2cnn(-c3ccccc3)c2n(C)c1=O | > 490 µM | > 490 µM | –
68 | c1ccc(C(NC2=NCCO2)c2ccccc2)cc1 | – | – | inactive
69 | c1ccc(/C2=N\OCCCOc3ccccc32)cc1 | > 200 µM | > 200 µM | –
70 | O=C(/C=C/c1ccc2c(c1)OCO2)N1CCCCC1 | – | – | inactive
71 | O=c1[nH]c2cc(Cl)ccc2nc1/C(=N\O)C(O)c1ccc(Cl)cc1Cl (configuration not stated) | > 74.1 µM | > 74.1 µM | –
72 | CN=C(SC)N(C)c1nc(=[N+](C)C)ss1 | – | – | inactive
73 | CSCCCNC(=O)c1csc(-c2csc(CCN)n2)n1 | > 661 µM | 85.1 µM | –
74 | CCc1cccc(C)c1NC(=O)NS(=O)(=O)c1ccc(C)cc1 | > 759 µM | > 759 µM | –
75 | CSc1nc(C(N)=O)c(N)c(=O)[nH]1 | > 468 µM | 126 µM | –
76 | COc1ccccc1N/N=c1/c2n(-c3ccc(Cl)cc3)c(=S)n(-c3ccccn3)c1=NCCN=2 | > 200 µM | > 200 µM | –
77 | O=C(/C(=C/c1cccs1)c1ccccc1)c1ccccc1 | > 200 µM | > 200 µM | –
78 | O=S(=O)(CSc1ccccc1)c1ccccc1 | > 490 µM | 288 µM | –
79 | COC(=O)[C@H](Cc1ccc(O)c(Br)c1)NC(=O)[C@H](Cc1ccc(O)cc1)NC(=O)OC(C)(C)C (Boc-Tyr-[Tyr(3-Br)]-OMe) | > 200 µM | 34.7 µM | –
80 | Cc1cc2c(nn1)-c1ccccc1C2=O | > 200 µM | 105 µM | –
81 | O=C(Nc1cc(S(=O)(=O)O)cc2cc(S(=O)(=O)O)c(N=Nc3cc(Nc4nc(Cl)nc(Nc5ccc(S(=O)(=O)O)cc5)n4)ccc3S(=O)(=O)O)c(O)c12)c1ccccc1 | – | – | inactive
82 | CCOC(=O)C1=NN(c2ccc(C)cc2)C2(c3ccccc3)C=C(c3ccccc3)N(C)CCN12 (configuration not stated) | > 200 µM | 145 µM | –
83 | COc1ccc(/C=C(\C2=NC(=O)CS2)c2nc3ccccc3[nH]2)cc1 | > 20.9 µM | > 20.9 µM | –
84 | CCCCCCN(N)C(=O)CC#N | > 39.8 µM | > 39.8 µM | –
85 | O=C1CC(c2ccc(O)c(O)c2)c2cc(O)c3c(c2O1)C[C@@H](O)[C@@H](c1ccc(O)c(O)c1)O3 (some centres not stated) | > 200 µM | 15.8 µM | –
